Assay results taken from patent US10316017B2, “COT modulators and methods of use thereof” (Gilead Sciences, Inc., priority 2015, dated 2019).

Columns and labels:
[1] = system: TNFα production in LPS-stimulated human monocytes; test: Cot Monocyte TNFα Cell Based Assay; conditions: Homo sapiens, Monocyte, TNFα in LPS-stimulated human monocytes; read-out: EC50 TNF
In short: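 Cells at 5,000/well were pretreated with compound for 1 h at 37 °C (0.5% DMSO final), then stimulated with 50 pg/ml LPS for 4 h at 37 °C. Supernatant TNFα was measured by two-antibody TR-FRET after overnight room-temperature incubation; values are percent of control between unstimulated and stimulated wells.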

[2] = biological target: T1, human Cot catalytic domain (30-397 amino acids) (Homo sapiens, UniProt P41279); test: High Throughput Cot Biochemical Assay (KinEASE TR-FRET); conditions: Cot biochemical HTRF (KinEASE TR-FRET) assay; read-out: IC50 HTRF
T1 construct: Purified recombinant human Cot catalytic domain (30-397 amino acids) was purchased from Cama Biosciences; purchased Cama Biosciences (so in the source)
In short: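 Reaction of 5 nM recombinant human Cot catalytic domain (aa 30-397) with 1 μM STK3 peptide (XL665-labeled) and 400 μM ATP in 10 mM MOPS pH 7.0, 10 mM MgOAc, 1 mM DTT, 0.5 mg/mL BSA, 0.1% DMSO. Phosphopeptide detected by TR-FRET with europium anti-phospho antibody.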

T1 sequence (P41279 30-397): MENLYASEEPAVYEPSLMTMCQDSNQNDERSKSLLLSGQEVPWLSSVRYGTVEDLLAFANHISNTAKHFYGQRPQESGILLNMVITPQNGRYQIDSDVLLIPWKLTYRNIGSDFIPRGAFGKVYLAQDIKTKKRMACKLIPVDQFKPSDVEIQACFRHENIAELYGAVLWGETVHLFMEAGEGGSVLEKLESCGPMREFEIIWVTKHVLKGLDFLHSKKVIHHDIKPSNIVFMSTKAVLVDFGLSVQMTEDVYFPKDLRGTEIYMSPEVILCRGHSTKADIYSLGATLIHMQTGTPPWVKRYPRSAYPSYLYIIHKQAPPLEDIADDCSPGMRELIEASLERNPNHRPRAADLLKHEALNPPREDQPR

Structure (SMILES) | EC50 [1] [µM] | IC50 [2] [µM]
CC(C)n1cc([C@@H](Nc2cc(Cl)c3ncc(C#N)c(Nc4ccc(F)c(Cl)c4)c3c2)c2cccc(N3CCCC3=O)c2)nn1 [Example 549, (S)-8-chloro-4-((3-chloro-4-fluorophenyl)amino)-6-(((1-isopropyl-1H-1,2,3-triazol-4-yl) (3-(2-oxopyrrolidin-1-yl)phenyl)methyl)amino) quinoline-3-carbonitrile] | 0.65 | 0.003
CC(C)(C)N1CCC(n2cc([C@@H](Nc3cc(Cl)c4ncc(C#N)c(Nc5ccc(F)c(Cl)c5)c4c3)c3cccc(N4CCCC4=O)c3)nn2)CC1 [Example 550, (S)-6-(((1-(1-(tert-butyl)piperidin-4-yl)-1H-1,2,3-triazol-4-yl)(3-(2-oxopyrrolidin-1-yl)phenyl)methyl)amino)-8-chloro-4-((3-chloro-4-fluorophenyl)amino)quinoline-3-carbonitrile] | 0.115 | 0.001
CC(C)n1cc([C@@H](Nc2cc(Cl)c3ncc(C#N)c(Nc4ccc(F)c(Cl)c4)c3c2)c2cccc(N3CCC3=O)c2)nn1 [Example 551, (S)-8-chloro-4-((3-chloro-4-fluorophenyl)amino)-6-(((1-isopropyl-1H-1,2,3-triazol-4-yl)(3-(2-oxoazetidin-1-yl)phenyl)methyl)amino)quinoline-3-carbonitrile] | 0.475 | 0.005
CC(C)(C)N1CCC(n2cc([C@@H](Nc3cc(Cl)c4ncc(C#N)c(Nc5ccc(F)c(Cl)c5)c4c3)c3cccc(N4CCC4=O)c3)nn2)CC1 [Example 552, (S)-6-(((1-(1-(tert-butyl)piperidin-4-yl)-1H-1,2,3-triazol-4-yl)(3-(2-oxoazetidin-1-yl)phenyl)methyl)amino)-8-chloro-4-((3-chloro-4-fluorophenyl)amino)quinoline-3-carbonitrile] | 0.135 | 0.005
CC(C)[C@@H](Nc1c(C#N)cnc2c(Cl)cc(N[C@@H](c3ccccc3)c3cn(C4CCN(C(C)(C)C)CC4)nn3)cc12)c1ccccc1 [Example 553, 6-(((S)-(1-(1-(tert-butyl)piperidin-4-yl)-1H-1,2,3-triazol-4-yl)(phenyl)methyl)amino)-8-chloro-4-(((R)-2-methyl-1-phenylpropyl)amino)quinoline-3-carbonitrile] | 0.423 | 0.01
COCCNc1c(C#N)cnc2c(Cl)cc(N[C@@H](c3ccccc3)c3cn(C4CCN(C(C)(C)C)CC4)nn3)cc12 [Example 554, (S)-6-(((1-(1-(tert-butyl)piperidin-4-yl)-1H-1,2,3-triazol-4-yl)(phenyl)methyl)amino)-8-chloro-4-((2-methoxyethyl)amino)quinoline-3-carbonitrile] | 8.25 | 1.3
CC(C)(O)CNc1c(C#N)cnc2c(Cl)cc(N[C@@H](c3ccccc3)c3cn(C4CCN(C(C)(C)C)CC4)nn3)cc12 [Example 555, (S)-6-(((1-(1-(tert-butyl)piperidin-4-yl)-1H-1,2,3-triazol-4-yl)(phenyl)methyl)amino)-8-chloro-4-((2-hydroxy-2-methylpropyl)amino)quinoline-3-carbonitrile] | 0.537 | 0.183
COC[C@@H](C)Nc1c(C#N)cnc2c(Cl)cc(N[C@@H](c3ccccc3)c3cn(C4CCN(C(C)(C)C)CC4)nn3)cc12 [Example 556, 6-(((S)-(1-(1-(tert-butyl)piperidin-4-yl)-1H-1,2,3-triazol-4-yl)(phenyl)methyl)amino)-8-chloro-4-(((R)-1-methoxypropan-2-yl)amino) quinoline-3-carbonitrile] | > 10 | 0.725
COC[C@H](C)Nc1c(C#N)cnc2c(Cl)cc(N[C@@H](c3ccccc3)c3cn(C4CCN(C(C)(C)C)CC4)nn3)cc12 [Example 557, 6-(((S)-(1-(1-(tert-butyl)piperidin-4-yl)-1H-1,2,3-triazol-4-yl)(phenyl)methyl)amino)-8-chloro-4-(((S)-1-methoxypropan-2-yl)amino)quinoline-3-carbonitrile] | > 10 | 0.999
CCC[C@@H](Nc1c(C#N)cnc2c(Cl)cc(N[C@@H](c3ccccc3)c3cn(C4CCN(C(C)(C)C)CC4)nn3)cc12)c1ccccc1 [Example 558, 6-(((S)-(1-(1-(tert-butyl)piperidin-4-yl)-1H-1,2,3-triazol-4-yl)(phenyl)methyl)amino)-8-chloro-4-(((R)-1-phenylbutyl)amino)quinoline-3-carbonitrile] | 0.199 | 0.011
CC[C@@H](Nc1c(C#N)cnc2c(Cl)cc(N[C@@H](c3cccc(C(=O)N4CC(OC)C4)c3)c3c[nH]nn3)cc12)c1ccccc1 [Example 559, 8-chloro-6-(((S)-(3-(3-methoxyazetidine-1-carbonyl)phenyl)(1H-1,2,3-triazol-4-yl)methyl)amino)-4-(((R)-1-phenylpropyl)amino)quinoline-3-carbonitrile] | 6.05 | 0.014
CC[C@@H](Nc1c(C#N)cnc2c(Cl)cc(N[C@@H](c3cccc(C(=O)N4CC(O)C4)c3)c3c[nH]nn3)cc12)c1ccccc1 [Example 560] | 8.83 | 0.003
CC[C@@H](Nc1c(C#N)cnc2c(Cl)cc(N[C@@H](c3cccc(C(=O)N4CC(F)(F)C4)c3)c3c[nH]nn3)cc12)c1ccccc1 [Example 561, 8-chloro-6-(((S)-(3-(3,3-difluoroazetidine-1-carbonyl)phenyl)(1H-1,2,3-triazol-4-yl)methyl)amino)-4-(((R)-1-phenylpropyl)amino)quinoline-3-carbonitrile] | 1.15 | 0.006
CC[C@@H](Nc1c(C#N)cnc2c(Cl)cc(N[C@@H](c3cccc(C(=O)N4CC(F)C4)c3)c3c[nH]nn3)cc12)c1ccccc1 [Example 562, 8-chloro-6-(((S)-(3-(3-fluoroazetidine-1-carbonyl)phenyl)(1H-1,2,3-triazol-4-yl)methyl)amino)-4-(((R)-1-phenylpropyl)amino)quinoline-3-carbonitrile] | 0.848 | 0.004
CC[C@@H](Nc1c(C#N)cnc2c(Cl)cc(N[C@@H](c3cccc(N(C)C(C)=O)c3)c3c[nH]nn3)cc12)c1ccccc1 [Example 563, N-(3-((S)-((8-chloro-3-cyano-4-(((R)-1-phenylpropyl)amino)quinolin-6-yl)amino)(1H-1,2,3-triazol-4-yl)methyl)phenyl)-N-methylacetamide] | 0.28 | 0.002
CC[C@@H](Nc1c(C#N)cnc2c(Cl)cc(N[C@@H](c3cccc(N(C)C(C)=O)c3)c3cn(C4CCN(C(C)(C)C)CC4)nn3)cc12)c1ccccc1 [Example 564, N-(3-((S)-(1-(1-(tert-butyl)piperidin-4-yl)-1H-1,2,3-triazol-4-yl)((8-chloro-3-cyano-4 (((R)-1-phenylpropyl)amino)quinolin-6-yl)amino)methyl)phenyl)-N-methylacetamide] | 0.068 | 0.001
CC[C@@H](Nc1c(C#N)cnc2c(Cl)cc(N[C@@H](c3cccc(C(=O)O)c3)c3c[nH]nn3)cc12)c1ccccc1 [Example 565, 3-((S)-((8-chloro-3-cyano-4-(((R)-1-phenylpropyl)amino)quinolin-6-yl)amino)(1H-1,2,3-triazol-4-yl)methyl)benzoic acid] | > 10 | 0.024
CC(C)n1cc([C@@H](Nc2cc(Cl)c3ncc(C#N)c(Nc4ccc(F)c(Cl)c4)c3c2)c2cccc(NS(C)(=O)=O)c2)nn1 [Example 566, (S)-N-(3-(((8-chloro-4-((3-chloro-4-fluorophenyl)amino)-3-cyanoquinolin-6-yl)amino)(1-isopropyl-1H-1,2,3-triazol-4-yl)methyl)phenyl) methanesulfonamide] | 0.353 | 0.005
CC(C)n1cc([C@@H](Nc2cc(Cl)c3ncc(C#N)c(Nc4ccc(F)c(Cl)c4)c3c2)c2cccc(N(C)S(C)(=O)=O)c2)nn1 [Example 567, (S)-N-(3-(((8-chloro-4-((3-chloro-4-fluorophenyl)amino)-3-cyanoquinolin-6-yl)amino)(1-isopropyl-1H-1,2,3-triazol-4-yl)methyl)phenyl)-N-methylmethanesulfonamide] | 0.076 | 0.003
CN(c1cccc([C@H](Nc2cc(Cl)c3ncc(C#N)c(Nc4ccc(F)c(Cl)c4)c3c2)c2cn(C3CCN(C(C)(C)C)CC3)nn2)c1)S(C)(=O)=O [Example 568, (S)-N-(3-((1-(1-(tert-butyl)piperidin-4-yl)-1H-1,2,3-triazol-4-yl)((8-chloro-4-((3-chloro-4-fluorophenyl)amino)-3-cyanoquinolin-6-yl)amino)methyl)phenyl)-N-methylmethanesulfonamide] | 0.143 | 0.002
C[C@@H](Nc1c(C#N)cnc2c(Cl)cc(N[C@@H](c3ccccc3)c3cn(C4CCN(C(C)(C)C)CC4)nn3)cc12)c1ccccc1 [Example 569, 6-(((S)-(1-(1-(tert-butyl)piperidin-4-yl)-1H-1,2,3-triazol-4-yl)(phenyl)methyl)amino)-8-chloro-4-(((R)-1-phenylethyl)amino)quinoline-3-carbonitrile] | 0.721 | 0.007
CC(C)n1cc([C@@H](Nc2cc(Cl)c3ncc(C#N)c(Nc4ccc(F)c(Cl)c4)c3c2)c2cccc(CN3CCCC3)c2)nn1 [Example 570, (S)-8-chloro-4-((3-chloro-4-fluorophenyl)amino)-6-(((1-isopropyl-1H-1,2,3-triazol-4-yl) (3-(pyrrolidin-1-ylmethyl)phenyl)methyl)amino) quinoline-3-carbonitrile] | 0.207 | 0.013
